Values of other authors, collected in US10874875B2, “Irradiation device” (Photocure ASA, priority 2009, dated 2020).

Tested on: CIN2 or CIN3 or a persistent CIN1
Settings: 24 patients; local application in a thermogel formulation; illumination 17 minutes after 3-5 hours, laser 100 J/cm^2; second PDT offered for incomplete response; scored at 6 months after the first treatment

CCCCCCOC(=O)CCC(=O)CN [5-ALA hexylester, 5-ALA hexyl ester]
complete response rate: 63%
